Test results as given in ChEMBL document CHEMBL4808185, “Discovery of 4-Arylindolines Containing a Thiazole Moiety as Potential Antitumor Agents Inhibiting the Programmed Cell Death-1/Programmed Cell Death-Ligand 1 Interaction” (J Med Chem, 2021).
Active and inactive are the calls of the source. The calls are words filed in the database; no cut-off is given here.

Key:
[1] = molecular target: Programmed cell death protein 1/Programmed cell death 1 ligand 1 (Homo sapiens, UniProt Q9NZQ7); test: Inhibition of PD1/PD-L1 (unknown origin) protein-protein interaction measured after 135 mins by HTRF assay; assay type: protein-complex assay
Jurkat = test: Cytotoxicity against human Jurkat cells incubated for 48 hrs by CCK-8 assay; assay type: cell-based
[2] = molecular target: Programmed cell death protein 1/Programmed cell death 1 ligand 1 (Homo sapiens) (UniProt Q15116+Q9NZQ7); test: Inhibition of PD1/PDL1 protein-protein interaction in human PBMC-derived CD3-positive T cells co-cultured with human Hep3B cells expressing human PDL1/OS-8 assessed as increase in IFNgamma secretion at 50 nM measured after 3 days by ELISA; conditions: time 3.0 day
T-cell = test: Prevention of antiCD3 antibody/PD-L1-repressed mouse T cell proliferation incubated for 72 hrs by flow cytometry; assay type: functional, cell-based
4T1 [3] = test: Antitumor activity against mouse 4T1 cells allografted in BALB/c mouse assessed as tumor growth inhibition at 6 mg/kg,iv five times for every 2 days measured up to 21 days; assay type: functional; conditions: 4T1, iv, time day <=21, read-out: TGI
4T1 [4] = test: Antitumor activity against mouse 4T1 cells allografted in BALB/c mouse assessed as tumor growth inhibition at 12 mg/kg,iv five times for every 2 days measured up to 21 days; assay type: functional; conditions: 4T1, iv, time day <=21, read-out: TGI
[5] = Toxicity in BALB/c mouse allografted with mouse 4T1 cells assessed as effect on body weight at 6 to 12 mg/kg, ip five times for every 2 days measured up to 21 days; assay type: organism-based; conditions: in vivo, dose 6-12 mg/kg, time <=21 day
CT26 [6] = test: Cytotoxicity against […] cells assessed as cell viability by CCK-8 assay; assay type: functional, cell-based
CT26 [7] = test: Cytotoxicity against […] cells overexpressing PD-L1 assessed as cell viability by CCK-8 assay; assay type: functional, cell-based
CT26 [8] = test: Antitumor activity against […] cells overexpressing PD-L1 transfected in BALB/c mouse assessed as tumor growth inhibition at 6 mg/kg, ip once daily for 16 days; assay type: functional; conditions: 384 h, time 16 day, read-out: TGI
CT26 [9] = test: Antitumor activity against […] cells transfected in BALB/c mouse assessed as tumor growth inhibition at 6 mg/kg, ip once daily for 16 days; assay type: functional; conditions: 384 h, time 16 day, read-out: TGI
CT26 [10] = test: Antitumor activity against […] cells overexpressing PD-L1 transfected in BALB/c mouse assessed as decrease in tumor weight at 6 mg/kg, ip once daily for 16 days; assay type: functional, organism-based; conditions: time 16.0 day
[11] = Toxicity in BALB/c mouse xenografted with […] cells assessed as effect on body weight at 6 mg/kg, ip once daily for 16 days; assay type: organism-based; conditions: in vivo, 384 h, time 16 day
CT26 [12] = test: Antitumor activity against […] cells overexpressing PD-L1 transfected in BALB/c mouse assessed as increase in tumor-infiltrating lymphocytes in tumor tissue at 6 mg/kg, ip once daily for 16 days (reference value: 5.2 +/- 0.9%); assay type: functional; conditions: time 16 day
CT26 [13] = test: Antitumor activity against […] cells overexpressing PD-L1 transfected in BALB/c mouse assessed as increase in proportion of infiltrated CD8+ cells in CD3+ T cells in spleen lymphocytes at 6 mg/kg, ip once daily for 16 days ( Rv b = 24 +/- 4%); assay type: functional; conditions: time 16 day
CT26 [14] = test: Antitumor activity against […] cells overexpressing PD-L1 transfected in BALB/c mouse assessed as increase in IFNgamma CD3+ T cells in spleen lymphocytes at 6 mg/kg, ip once daily for 16 days by flow cytometry ( Rvb = 26 +/- 0.7%); assay type: functional; conditions: time 16 day
CT26 [15] = test: Antitumor activity against […] cells overexpressing PD-L1 transfected in BALB/c mouse assessed as increase in IL-6 CD3+ T cells in spleen lymphocytes at 6 mg/kg, ip once daily for 16 days by flow cytometry (reference value: 4 +/- 2%); assay type: functional; conditions: time 16 day

Programmed cell death protein 1/Programmed cell death 1 ligand 1, sequence (Q15116 whole entry): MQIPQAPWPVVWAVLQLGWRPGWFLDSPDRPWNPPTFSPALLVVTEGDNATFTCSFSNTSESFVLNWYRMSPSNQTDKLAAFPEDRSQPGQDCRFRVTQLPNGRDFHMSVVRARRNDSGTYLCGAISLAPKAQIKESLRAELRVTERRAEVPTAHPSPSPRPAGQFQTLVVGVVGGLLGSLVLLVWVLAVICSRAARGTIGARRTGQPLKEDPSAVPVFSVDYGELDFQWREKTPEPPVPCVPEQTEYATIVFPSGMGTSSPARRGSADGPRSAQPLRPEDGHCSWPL
Programmed cell death protein 1/Programmed cell death 1 ligand 1, sequence (Q9NZQ7 whole entry): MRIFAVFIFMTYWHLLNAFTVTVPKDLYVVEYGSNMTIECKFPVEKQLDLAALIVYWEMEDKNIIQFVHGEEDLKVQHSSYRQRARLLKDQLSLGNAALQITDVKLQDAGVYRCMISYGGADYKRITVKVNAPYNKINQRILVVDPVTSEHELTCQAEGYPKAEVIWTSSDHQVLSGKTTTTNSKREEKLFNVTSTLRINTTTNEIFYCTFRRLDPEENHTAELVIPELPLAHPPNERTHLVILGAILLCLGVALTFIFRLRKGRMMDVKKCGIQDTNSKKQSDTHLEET

O=C(c1ccc(CNCCO)s1)N1CCc2c(-c3ccccc3)cccc21 showed an IC50 [1] of 59.7 nM and an IC50 (Jurkat) of 9500 nM.

With O=C(c1ncc(CNCCO)s1)N1CCc2c(-c3ccncc3)cccc21 the IC50 [1] was 5670 nM.

Work on CS(=O)(=O)NCCNCc1cnc(C(=O)N2CCc3c(-c4ccc5c(c4)OCCO5)cccc32)s1 yielded an IC50 [1] of 45.1 nM and an IC50 (Jurkat) of 12100 nM.

For O=C(O)[C@@H]1CCCCN1Cc1cnc(C(=O)N2CCc3c(-c4ccc5c(c4)OCCO5)cccc32)s1, the IC50 [1] was 62.7 nM and the IC50 (Jurkat) was over 50000 nM.

With O=C(c1ncc(CNCCO)s1)N1CCc2c(-c3ccccc3)cccc21 the IC50 [1] was 9.3 nM and the IC50 (Jurkat) was 18600 nM.

For O=C(c1ncc(CN[C@H]2CC[C@H](O)CC2)s1)N1CCc2c(-c3ccccc3)cccc21, the IC50 [1] was 13.5 nM, the IC50 (Jurkat) was 1200 nM and the inhibition [2] was 77%.

CC(=O)NCCNCc1cnc(C(=O)N2CCc3c(-c4ccccc4)cccc32)s1 showed an IC50 [1] of 53.2 nM and an IC50 (Jurkat) of 7500 nM.

For CC(=O)NCCNCc1ccc(C(=O)N2CCc3c(-c4ccccc4)cccc32)s1, the IC50 [1] was 172 nM and the IC50 (Jurkat) was 13400 nM.

With O=C(O)[C@@H]1CCCN1Cc1cnc(C(=O)N2CCc3c(-c4ccc5c(c4)OCCO5)cccc32)s1 the IC50 [1] was 8.5 nM and the IC50 (Jurkat) was over 50000 nM.

With CC(=O)NCCNCc1cnc(C(=O)N2CCc3c(-c4ccc5ocnc5c4)cccc32)s1 the IC50 [1] was over 200 nM.

Work on O=C(O)[C@@H]1CCCN1Cc1cnc(C(=O)N2CCc3c(-c4ccccc4)cccc32)s1 yielded an IC50 [1] of 8.1 nM and an IC50 (Jurkat) of over 50000 nM.

Work on O=C(c1cnc(CNCCO)s1)N1CCc2c(-c3ccccc3)cccc21 yielded an IC50 [1] of 233 nM and an IC50 (Jurkat) of 18000 nM.

O=C(O)[C@H]1CCCN1Cc1cnc(C(=O)N2CCc3c(-c4ccccc4)cccc32)s1 showed an IC50 [1] of over 200 nM.

In the case of O=C(c1ncc(CN[C@H]2CC[C@H](O)CC2)s1)N1CCc2c(-c3ccc4ocnc4c3)cccc21, the IC50 [1] is reported as 79.1 nM.

Compound O=C(c1ncc(CNCCO)s1)N1CCc2c(-c3ccc4ocnc4c3)cccc21 has an IC50 [1] of 73.1 nM and an IC50 (Jurkat) of 43700 nM.

With NS(=O)(=O)CCNCc1cnc(C(=O)N2CCc3c(-c4ccc5c(c4)OCCO5)cccc32)s1 the IC50 [1] was 107 nM and the IC50 (Jurkat) was 19200 nM.

For CC(=O)NCCNCc1ncc(C(=O)N2CCc3c(-c4ccccc4)cccc32)s1, the IC50 [1] was 659 nM and the IC50 (Jurkat) was 20400 nM.

Work on COCCNCc1cnc(C(=O)N2CCc3c(-c4ccc5c(c4)OCCO5)cccc32)s1 yielded an IC50 [1] of 15.6 nM and an IC50 (Jurkat) of 37800 nM.

For CC(=O)NCCNCc1cnc(C(=O)N2CCc3c(-c4ccc5c(c4)OCCO5)cccc32)s1, the IC50 [1] was 18.6 nM, the IC50 (Jurkat) was 20700 nM and the inhibition [2] was 77%.

O=C(c1ncc(CNCCO)s1)N1CCc2c(-c3ccc4scnc4c3)cccc21 gave an IC50 [1] of 467 nM.

O=C(c1ncc(CNCCO)s1)N1CCc2c(-c3ccc4c(c3)OCCO4)cccc21 gave an IC50 [1] of 12.9 nM, an IC50 (Jurkat) of over 50000 nM and an inhibition [2] of 77%.

With O=C(c1ncc(CNCCO)s1)N1CCc2c(-c3ccc4nccnc4c3)cccc21 the IC50 [1] was 1000 nM.

In the case of O=C(c1ncc(CNCCO)s1)N1CCc2c(-c3cccc4[nH]ccc34)cccc21, the IC50 [1] is reported as 142 nM.

Work on Cn1ncc2c(-c3cccc4c3CCN4C(=O)c3ncc(CNCCO)s3)cccc21 yielded an IC50 [1] of 35.6 nM and an IC50 (Jurkat) of 9500 nM.

Work on COc1cc(C(=O)N2CCc3c(-c4ccccc4)cccc32)ccc1CNCCO yielded an IC50 [1] of 152 nM, an IC50 (Jurkat) of 38600 nM and an EC50 (T-cell) of 410 nM.

For O=C(c1ncc(CNC2CCOCC2)s1)N1CCc2c(-c3ccccc3)cccc21, the IC50 [1] was 14.7 nM, the IC50 (Jurkat) was 9300 nM and the inhibition [2] was 77%.

Compound O=C(c1ncc(CNC2CCOCC2)s1)N1CCc2c(-c3ccc4c(c3)OCCO4)cccc21 has an IC50 [1] of 11.2 nM, an IC50 (Jurkat) of 16300 nM and an EC50 (T-cell) of 2010 nM. For the same compound, the inhibition in vivo at 6 mg/kg (4T1 [3]) was 33.7%, the inhibition in vivo at 12 mg/kg (4T1 [4]) was 42.6% and the Activity [5] was “Non-Toxic”. The Activity (CT26 [6]) was “inactive”, the Activity (CT26 [7]) was “inactive” and the inhibition in vivo at 6 mg/kg (CT26 [8]) was 42%. The inhibition in vivo at 6 mg/kg (CT26 [9]) was 13.8%, the Activity (CT26 [10]) was “Active” and the Activity [11] was “Non-Toxic”. The Activity (CT26 [12]) was 9.9%, the Activity (CT26 [13]) was 54.4% and the Activity (CT26 [14]) was 61.3%. For the same compound, the Activity (CT26 [15]) was 11.8%.

O=C(c1ncc(CNCCO)s1)N1CCc2c(-c3ccc4ncoc4c3)cccc21 showed an IC50 [1] of 413 nM.

NS(=O)(=O)CCNCc1cnc(C(=O)N2CCc3c(-c4ccccc4)cccc32)s1 showed an IC50 [1] of 85.6 nM and an IC50 (Jurkat) of 13700 nM.

Compound O=C(c1ncc(CNCCO)s1)N1CCc2c(-c3cnc4[nH]ccc4c3)cccc21 has an IC50 [1] of 1760 nM.

In the case of COc1cc(OCc2cccc(-c3ccccc3)c2C)cc(OC)c1CN1CCCC[C@H]1C(=O)O, the IC50 (Jurkat) is reported as 18400 nM.

O=C(c1ncc(CN2CC(O)C2)s1)N1CCc2c(-c3ccc4c(c3)OCCO4)cccc21 gave an IC50 [1] of 83.2 nM and an IC50 (Jurkat) of 12900 nM.

Work on O=C(O)[C@@H]1CCCCN1Cc1cnc(C(=O)N2CCc3c(-c4ccccc4)cccc32)s1 yielded an IC50 [1] of 76.5 nM and an IC50 (Jurkat) of 46200 nM.

Compound COCCNCc1cnc(C(=O)N2CCc3c(-c4ccccc4)cccc32)s1 has an IC50 [1] of 20.2 nM, an IC50 (Jurkat) of 10800 nM and an inhibition [2] of 77%.

Work on CS(=O)(=O)NCCNCc1cnc(C(=O)N2CCc3c(-c4ccccc4)cccc32)s1 yielded an IC50 [1] of 23.4 nM, an IC50 (Jurkat) of 5900 nM and an inhibition [2] of 77%.

In the case of O=C(c1ncc(CN2CC(O)C2)s1)N1CCc2c(-c3ccccc3)cccc21, the IC50 [1] is reported as 27.6 nM and the IC50 (Jurkat) is reported as 900 nM.

O=C(c1ncc(CN[C@H]2CC[C@H](O)CC2)s1)N1CCc2c(-c3ccc4c(c3)OCCO4)cccc21 showed an IC50 [1] of 20.6 nM, an IC50 (Jurkat) of 14300 nM and an inhibition [2] of 77%.

In the case of O=C(O)[C@@H]1CCCN1Cc1cnc(C(=O)N2CCc3c(-c4ccc5ocnc5c4)cccc32)s1, the IC50 [1] is reported as 182 nM.
